The text below walks through data of US12655106B2 (Eikonizo Therapeutics, Inc., priority 2021, dated 2026).

The target of experiment [1] is T1, Full length Human HDAC8 (Homo sapiens, UniProt Q9BY41).
T1 construct: Full length Human HDAC8; HIS (N); host or cells: baculovirus expression system
T1 sequence (Q9BY41 1-377): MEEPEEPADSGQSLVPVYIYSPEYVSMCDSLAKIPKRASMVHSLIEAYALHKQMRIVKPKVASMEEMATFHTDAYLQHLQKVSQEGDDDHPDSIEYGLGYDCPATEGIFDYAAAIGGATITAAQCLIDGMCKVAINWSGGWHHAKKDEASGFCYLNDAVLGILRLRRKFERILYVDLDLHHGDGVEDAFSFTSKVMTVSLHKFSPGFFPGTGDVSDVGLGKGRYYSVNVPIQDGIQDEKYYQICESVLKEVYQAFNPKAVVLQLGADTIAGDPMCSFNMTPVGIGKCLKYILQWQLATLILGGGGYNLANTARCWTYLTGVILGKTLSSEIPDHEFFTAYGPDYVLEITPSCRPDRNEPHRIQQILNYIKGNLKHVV
Briefly: Caliper endpoint assay for HDAC enzymatic activity (HDAC8). It counts as biochemical. To be noted: in vitro enzymatic, 30 min pre-incubation, 1 μM substrate peptide.

For experiment [2], the target named is T2, Full length Human HDAC6 (Homo sapiens, UniProt Q9UBN7).
T2 construct: Full length Human HDAC6; FLAG (C); host or cells: baculovirus expression system
T2 sequence (Q9UBN7 1-1215): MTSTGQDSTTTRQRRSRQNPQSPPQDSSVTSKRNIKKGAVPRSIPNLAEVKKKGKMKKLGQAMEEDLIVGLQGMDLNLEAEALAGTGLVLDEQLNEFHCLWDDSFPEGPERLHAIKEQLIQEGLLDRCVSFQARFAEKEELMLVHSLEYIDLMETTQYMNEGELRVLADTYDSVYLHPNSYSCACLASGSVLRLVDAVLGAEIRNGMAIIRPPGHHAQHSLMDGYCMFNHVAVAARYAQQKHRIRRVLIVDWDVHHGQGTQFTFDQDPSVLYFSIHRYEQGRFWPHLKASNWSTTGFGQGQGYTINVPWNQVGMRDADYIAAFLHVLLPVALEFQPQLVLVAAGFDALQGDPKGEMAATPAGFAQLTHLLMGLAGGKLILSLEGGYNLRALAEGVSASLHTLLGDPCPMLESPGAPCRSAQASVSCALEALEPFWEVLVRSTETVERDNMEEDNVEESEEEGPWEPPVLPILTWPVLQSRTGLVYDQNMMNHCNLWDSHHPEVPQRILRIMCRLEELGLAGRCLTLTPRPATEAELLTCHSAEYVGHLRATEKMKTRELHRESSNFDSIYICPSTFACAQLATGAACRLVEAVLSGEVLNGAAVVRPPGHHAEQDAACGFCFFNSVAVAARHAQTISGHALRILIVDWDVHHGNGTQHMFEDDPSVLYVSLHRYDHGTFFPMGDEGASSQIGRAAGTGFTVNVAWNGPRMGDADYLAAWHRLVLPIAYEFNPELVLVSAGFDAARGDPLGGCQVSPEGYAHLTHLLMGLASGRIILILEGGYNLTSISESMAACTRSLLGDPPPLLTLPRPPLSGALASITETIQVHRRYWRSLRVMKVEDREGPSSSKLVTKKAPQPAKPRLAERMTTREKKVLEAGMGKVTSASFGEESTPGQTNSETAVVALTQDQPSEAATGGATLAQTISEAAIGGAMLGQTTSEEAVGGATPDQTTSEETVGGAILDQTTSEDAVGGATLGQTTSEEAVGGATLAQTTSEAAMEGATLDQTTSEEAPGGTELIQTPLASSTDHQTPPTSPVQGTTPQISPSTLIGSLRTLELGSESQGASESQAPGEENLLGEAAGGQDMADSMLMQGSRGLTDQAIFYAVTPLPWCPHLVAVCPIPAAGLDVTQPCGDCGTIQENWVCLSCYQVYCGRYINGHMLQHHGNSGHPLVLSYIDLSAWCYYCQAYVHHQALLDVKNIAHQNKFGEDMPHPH
Briefly: Caliper endpoint assay for HDAC enzymatic activity (HDAC6). The following applies: for pIC50: in vitro enzymatic, Caliper endpoint assay, 30 min pre-incubation, 1 μM substrate peptide; for Selectivity (6 v 8): ratio of HDAC8 IC50/HDAC6 IC50. It is filed as biochemical.

pIC50: −log10 of the molar value.

A word on the pIC50: it is the negative decadic logarithm of the IC50, by convention in mol/L. Consider `C[C@@H]1CC[C@@H]2c3c(F)cc(C(=O)NO)cc3CCN12` (single isomer, unassigned) [Compound 156], for which the pIC50 in experiment [1] is 5.00 to 6.00; in experiment [2] it was 6.00 to 7.00.
The molecule `O=C(NO)c1cc(F)c2c(c1)CCN1CCC[C@@H]21` [Compound 79] gave a pIC50 in experiment [1] of 5.00 to 6.00. For the same molecule, in experiment [2], the pIC50 was 7.00 to 9.00 and the “Selectivity (6 v 8)” value was “IV (IV: >100-1000)”.
Molecule `CN1CC2(C[C@H](N3CCc4cc(C(=O)NO)cc(F)c4C3)CCO2)C1` (single isomer, unassigned) [Compound 452] had a pIC50 in experiment [1] of 4.00 to 5.00. Besides, in experiment [2], the pIC50 was 6.00 to 7.00 and the “Selectivity (6 v 8)” value was “III (III: >10-100)”.
The like results for `CC[C@@H]1Cc2c(F)cc(C(=O)NO)cc2CN1C[C@@H]1CCCCO1` (single isomer, unassigned) [Compound 228] were, in that order, 5.00 to 6.00, 7.00 to 9.00 and “III (III: >10-100)”.
The matching figures for `O=C(NO)c1cc(F)c2c(c1)CCN(CC1C3CC1CN(C1CC1)C3)C2` (stereo not drawn) [Compound 494, 2-[(3-cyclopropyl-3-azabicyclo[3.1.1]heptan-6-yl)methyl]-8-fluoro-3,4-dihydro-1H-isoquinoline-6-carbohydroxamic acid]: 5.00 to 6.00, 7.00 to 9.00 and “III (III: >10-100)”.
The like results for `CN1CC[C@@]2(CC[C@@H](N3CCc4cc(C(=O)NO)cc(F)c4C3)C2)C1` (single isomer, unassigned) [Compound 404] were, in that order, 4.00 to 5.00, 7.00 to 9.00 and “IV (IV: >100-1000)”.
In experiment [1], `CN1CC[C@]2(CC[C@@H]2N2CCc3cc(C(=O)NO)cc(F)c3C2)C1` (single isomer, unassigned) [Compound 330] gave a pIC50 of 4.00 to 5.00. Besides, in experiment [2], the pIC50 is 7.00 to 9.00 and the “Selectivity (6 v 8)” value is given as “IV (IV: >100-1000)”.
Regarding `[2H]c1c(C(=O)NO)ccc2c1CCN(C1CC3(CCCCC3)C1)C2` [Compound 505, N-hydroxy-2-(spiro[3.5]nonan-2-yl)-1,2,3,4-tetrahydroisoquinoline-5-d-6-carboxamide], the results for the negative logarithm of the IC50 (pIC50) in experiment [1] and in experiment [2] were 4.00 to 5.00 and 7.00 to 9.00, respectively. Besides, in experiment [2], the “Selectivity (6 v 8)” value is on record as “IV (IV: >100-1000)”.
In the case of `O=C(NO)c1cc(F)c2c(c1)CCN1CCC[C@H]21` [Compound 80], the pIC50 is 5.00 to 6.00 in experiment [1] and 6.00 to 7.00 in experiment [2]. Also, in experiment [2], the “Selectivity (6 v 8)” value is given as “III (III: >10-100)”.
The matching figures for `O=C(NO)c1cc(F)c2c(c1)CCN(C1CC3(CCOCC3)C1)C2` [Compound 179, 8-Fluoro-N-hydroxy-2-(7-oxaspiro[3.5]nonan-2-yl)-1,2,3,4-tetrahydroisoquinoline-6-carboxamide]: less than 4.00, 7.00 to 9.00 and “V (V: >1000)”.
In experiment [1], `CC(=O)N1CC2(CC(N3CCc4cc(C(=O)NO)cc(F)c4C3)C2)C1` [Compound 292, 2-(2-acetyl-2-azaspiro[3.3]heptan-6-yl)-8-fluoro-N-hydroxy-1,2,3,4-tetrahydroisoquinoline-6-carboxamide] gave a pIC50 of 4.00 to 5.00. Further, in experiment [2], the pIC50 is 7.00 to 9.00 and the “Selectivity (6 v 8)” value is “IV (IV: >100-1000)”.
With `O=C(NO)c1cc(F)c(CN2C3CCC2COC3)cc1F` [Compound 50], the “Selectivity (6 v 8)” value in experiment [2] is “III (III: >10-100)”.
`O=C(NO)c1ccc2c(c1)CN1CCCC[C@@H]1C2` [Compound 143] gave a pIC50 in experiment [1] of 5.00 to 6.00. In addition, in experiment [2], the pIC50 is 6.00 to 7.00 and the “Selectivity (6 v 8)” value is “III (III: >10-100)”.
As to `O=C(NO)c1cc(F)c2c(c1)CCN1CCCC[C@H]21` (single isomer, unassigned) [Compound 140], the values for the pIC50 in experiment [1] and in experiment [2] were 4.00 to 5.00 and 5.00 to 6.00, respectively.
As to `CC[C@H]1Cc2c(F)cc(C(=O)NO)cc2CN1C1CC2(CCCCC2)C1` (single isomer, unassigned) [Compound 233], in experiment [1], the pIC50 is 4.00 to 5.00. Moreover, in experiment [2], the pIC50 was 7.00 to 9.00 and the “Selectivity (6 v 8)” value is “IV (IV: >100-1000)”.
`O=C(NO)c1cc(F)c2c(c1)CCN([C@H]1C[C@@]3(CCCNC3)C1)C2` (single isomer, unassigned) [Compound 342, 8-fluoro-N-hydroxy-2-((2s,4r)-6-azaspiro[3.5]nonan-2-yl)-1,2,3,4-tetrahydroisoquinoline-6-carboxamide]: the pIC50 in experiment [1] is 5.00 to 6.00. Besides, in experiment [2], the pIC50 is 7.00 to 9.00 and the “Selectivity (6 v 8)” value is on record as “IV (IV: >100-1000)”.
For `CN1[C@@H]2CC[C@H]1CC(CN1CCc3cc(C(=O)NO)cc(F)c3C1)C2` (single isomer, unassigned) [Compound 482], the pIC50 in experiment [1] was 5.00 to 6.00. For the same molecule, in experiment [2], the pIC50 was 7.00 to 9.00 and the “Selectivity (6 v 8)” value is recorded as “IV (IV: >100-1000)”.
The like results for `[2H]c1cc2c(cc1C(=O)NO)CCN(C1CC3(CCCCC3)C1)C2` [Compound 504, N-hydroxy-2-(spiro[3.5]nonan-2-yl)-1,2,3,4-tetrahydroisoquinoline-7-d-6-carboxamide] were, in that order, 4.00 to 5.00, 6.00 to 7.00 and “IV (IV: >100-1000)”.
On to `O=C(NO)c1cc(F)c2c(c1)CN1CCC[C@@H]1C2` [Compound 124], for which the pIC50 in experiment [1] is 5.00 to 6.00. Besides, in experiment [2], the pIC50 was 7.00 to 9.00 and the “Selectivity (6 v 8)” value is reported as “IV (IV: >100-1000)”.
Consider `CC(=O)N1CC[C@@H](N2CCc3cc(C(=O)NO)cc(F)c3C2)CC12CCC2` (single isomer, unassigned) [Compound 442], for which the values for the pIC50 in experiment [1] and in experiment [2] were 4.00 to 5.00 and 7.00 to 9.00, respectively. The “Selectivity (6 v 8)” value in experiment [2] is given as “IV (IV: >100-1000)”.
For `CN1CC2(CN3CCc4cc(C(=O)NO)cc(F)c4C3)CC1C2` [Compound 490, 8-fluoro-2-[(2-methyl-2-azabicyclo[2.1.1]hexan-4-yl)methyl]-3,4-dihydro-1H-isoquinoline-6-carbohydroxamic acid], the pIC50 in experiment [1] is 5.00 to 6.00. For the same molecule, in experiment [2], the negative logarithm of the IC50 (pIC50) was 7.00 to 9.00 and the “Selectivity (6 v 8)” value was “IV (IV: >100-1000)”.
Regarding `O=C(NO)c1ccc(CN2C3CCCC2CCC3)c(F)c1` [Compound 60], the “Selectivity (6 v 8)” value in experiment [2] is “II (II: >1-10)”.
For the molecule `O=C(NO)c1ccc(CN2CCC3(CCCCC3)C2)c(F)c1` [Compound 75, 4-((2-Azaspiro[4.5]decan-2-yl)methyl)-3-fluoro-N-hydroxybenzamide], the “Selectivity (6 v 8)” value in experiment [2] is “III (III: >10-100)”.
As for `O=C1CC2CCCC(C1)N2Cc1ccc(C(=O)NO)cc1F` [Compound 62], the “Selectivity (6 v 8)” value in experiment [2] is reported as “III (III: >10-100)”.
Regarding `O=C(NO)c1ccc(CN2C3CCCC2CC3)c(F)c1` [Compound 61], in experiment [2], the “Selectivity (6 v 8)” value is on record as “II (II: >1-10)”.
Turning to `CN1CC2CCC(C1)N2Cc1ccc(C(=O)NO)cc1F` [Compound 56], the “Selectivity (6 v 8)” value in experiment [2] is recorded as “III (III: >10-100)”.
The same measure, in the same setting: as for `O=C(NO)c1ccc(CN2C3CCC2COC3)c(F)c1` [Compound 59], the entry is “III (III: >10-100)”; as for `CC1(C)C[C@H]2Cc3cc(C(=O)NO)cc(F)c3CN2C1` (single isomer, unassigned) [Compound 125], “III (III: >10-100)”.
`O=C(NO)c1ccc(CN2C3CCCC2COC3)c(F)c1` [Compound 52]: in experiment [2], the “Selectivity (6 v 8)” value is recorded as “III (III: >10-100)”.
As to `O=C(NO)c1ccc2c(c1)CN1CCC[C@@H]21` (single isomer, unassigned) [Compound 165], the “Selectivity (6 v 8)” value in experiment [2] is reported as “III (III: >10-100)”.
`O=C1CC2CCC(C1)N2Cc1ccc(C(=O)NO)cc1F` [Compound 63]: the “Selectivity (6 v 8)” value in experiment [2] is listed as “III (III: >10-100)”.
